RP-LC retention time data for 80 compounds are collected here from the METLIN SMRT retention time set (Domingo-Almenara et al. 2019).

The nature of the data set: gradient 5% acetonitrile 3 min, to 50% in 2 min, to 85% in 15 min, held 3 min, 100 µL/min. The note with it: column: Zorbax Extend-C18 2.1 x 50 mm; eluents: water / acetonitrile, 0.1% formic acid. In outline: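 Data were gathered over 3 months by HPLC coupled to a quadrupole time-of-flight mass spectrometer, operated in positive and negative ionization mode. Mixtures of ~100 pure standards ran on a Zorbax Extend-C18 column (2.1 × 50 mm, 1.8 μm) at 100 μL/min, with water and acetonitrile each containing 0.1% formic acid and dead and dwell volumes of 40 μL and 900 μL. Retention time was read from adduct peaks picked by computer and checked manually.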
In turn, `CCCC1NN(C)C2C(=O)NC(c3cc(S(=O)(=O)N4CCN(C)CC4)ccc3OCC)NC12` (stereo not given) returned an RP-LC retention time of 722 s. `O=C1CC(c2noc(-c3cccc(OC(F)(F)F)c3)n2)CN1c1ccc(F)c(Cl)c1` (stereo not given) had an RP-LC retention time of 1210 s. `CN1CCN(C(=O)c2ccc(-c3nnc4ccc(NC(=O)C5CCC5)cn34)cc2)CC1`: the RP-LC retention time is 587 s.

For the compound `COCCCNC(=O)c1csc(N2CCN(c3ccc(F)cc3)CC2)n1`, the RP-LC retention time was found to be 915 s. `Cc1cc(C)n(-c2ccc(C(=O)NCc3ccc(Cl)cc3)cn2)n1` came in with an RP-LC retention time of 990 s. For the compound `COc1ccccc1C(=O)N1C[C@H](c2nc(-c3ccccc3)no2)[C@@H](C)C1`, the RP-LC retention time stood at 820 s.

With `Cc1cc(NC(=O)c2cnc(-c3ccccc3)nc2-c2ccncc2)ccc1Br`, the RP-LC retention time stood at 994 s. With `COC(=O)c1ccc(C(=O)NCC2CCN(c3ncccn3)CC2)cc1`, the RP-LC retention time stood at 635 s. `CSc1ccccc1CN1CCC(CNC(=O)c2ccco2)CC1` registered an RP-LC retention time of 548 s. In the case of `O=S(=O)(c1ccc(-c2nnc(C3CCC3)o2)o1)N1CCN(c2ccccc2)CC1` it was 1090 s; in that of `CCc1nn2c(CNS(=O)(=O)Cc3ccc(Cl)cc3)c(-c3ccccc3)nc2s1`, 1020 s; in that of `CCCC(=O)N1CCC(C(=O)Nc2nnc(C)s2)CC1`, 590 s. As for `CCc1nnc(-c2cc(C)n(CC(=O)Nc3cccc(SC)c3)c2C)o1`, the RP-LC retention time is 846 s. In turn, `COc1ccc(Cl)cc1NC(=O)N1CCC2(CC1)NC(=O)c1cc(C)ccc1N2C` had an RP-LC retention time of 895 s. In the case of `COCCCNC(=O)c1nc2ccccn2c1-c1ccc(Cl)cc1` it was 764 s. Consider `O=C(Cn1cc(C(=O)C(=O)N2CCCC2)c2ccccc21)NCc1ccc2c(c1)OCCCO2`, for which the RP-LC retention time came to 786 s.

On to `COC(=O)C(C)NC(=O)N1CCN(c2nc3ccccc3n2Cc2ccccc2)CC1` (stereo not given), for which the RP-LC retention time worked out at 659 s.

`Cn1cc(-c2ccncc2)cc1C(=O)N1CCN(c2ccccc2F)CC1` returned an RP-LC retention time of 650 s.

Compound `CCN1C(=O)c2cccnc2Sc2cc(NC(=O)c3ccccn3)ccc21` came in with an RP-LC retention time of 802 s. In the case of `CCC(C)NC(=O)CC1CCN(C(=O)c2[nH]c(C)cc2C)CC1` (stereo not given) it was 686 s.

`O=C(C1CCCN(c2ccc(-c3ccccc3)nn2)C1)N1CCN(C2CCCCC2)CC1` (stereo not given) displayed an RP-LC retention time of 597 s.

In the case of `O=C(c1ccc(-c2noc(C3CC3)n2)cc1)N1CCN(c2nc3cccnc3o2)CC1`, the RP-LC retention time was determined as 793 s. `COc1ccc2[nH]cc(CCNC(=O)c3c(Cl)cccc3Cl)c2c1` yielded an RP-LC retention time of 774 s. `COCCN1CC(CO)C2(CCN(Cc3ccc(Cl)cc3F)CC2)C1` (stereo not given) showed an RP-LC retention time of 538 s. `O=C(Nc1ccc(Cl)cc1)C1CCCN(c2nc3ccsc3c(=O)n2Cc2ccc(F)cc2)C1` (stereo not given) had an RP-LC retention time of 1110 s. `Cc1nnc2n1CCN(C(=O)Cc1c(F)cccc1Cl)C2`: the RP-LC retention time amounted to 616 s. For `COc1ccc2[nH]c3c(c2c1)CCNC3c1ccc(C)cc1` (stereo not given), the RP-LC retention time was found to be 654 s. Regarding `COC(=O)C1=CN(c2ccc(OC)c(Cl)c2)c2cc(F)ccc2S1(=O)=O`, the RP-LC retention time was found to be 914 s. In the case of `Cc1ccc(C(=O)NCc2ccc(N3CCCC3)nc2)s1` it was 601 s; in that of `O=C(NC1CC1)c1cn(-c2ccc(-c3nc(C4CC4)no3)cn2)cn1`, 762 s; in that of `CCn1c(=O)c(N2CCN(C(=O)Nc3cc(C)cc(C)c3)CC2)nc2ccccc21`, 927 s.

For `CCOc1ccc(-c2cc3c(=O)n(Cc4nc(-c5ccc(OC(C)C)cc5)no4)ncn3n2)cc1`, the RP-LC retention time is 1260 s. In turn, `CCC(=O)N1CCc2cc(N3CC(C(=O)NCC(C)C)CC3=O)ccc21` (stereo not given) displayed an RP-LC retention time of 687 s. For `Nc1nnc(SCc2nnc(-c3cccc(F)c3)o2)s1` the value was 646 s; for `COc1ccccc1-c1noc(C2CCCN2C(=O)c2ccc(C#N)cc2F)n1` (stereo not given), 839 s. `Cc1ccc(NC(=O)C2CCN(c3nc(C4CCC4)nc4csc(C)c34)CC2)c(C)c1` displayed an RP-LC retention time of 804 s. For `O=C(Nc1ccc(N2CCOCC2)cc1)c1cc2ccccc2o1` the value was 757 s; for `CSc1ccc(-c2noc(Cn3c(=O)n(CC(C)C)c(=O)c4ccccc43)n2)cc1`, 1210 s; for `CCOC(=O)CCNC(=O)NCc1nnnn1-c1ccc(C)c(C)c1`, 663 s. `COCCCNC(=O)c1ccc(Oc2nccnc2N2CCC(C)CC2)cc1` showed an RP-LC retention time of 956 s. As for `CN(CC1(C)CCOCC1)C(=O)c1c(F)cccc1Cl`, the RP-LC retention time stood at 813 s. Regarding `COc1ccc(C(=O)N2C[C@@H]3C[C@H]2C[C@@H]3NC(=O)c2cccs2)cn1`, the RP-LC retention time is 666 s. The compound `COc1ccc2c(c1)-c1nc(NC(=O)c3ccc(Br)cc3)sc1CC2` registered an RP-LC retention time of 1250 s.

In turn, `Cc1ccc(CNC(=O)c2ccc3c(=O)n(Cc4ccccc4)c(N4CCCC4)nc3c2)o1` returned an RP-LC retention time of 683 s. In turn, `O=C1N(c2cccc(F)c2)C(c2ccccc2)C12CCN(Cc1cccc(F)c1O)CC2` (stereo not given) gave an RP-LC retention time of 774 s. Compound `Cc1oc(-c2[nH]ncc2C(=O)N(C)C)cc1S(=O)(=O)NCc1ccccn1` gave an RP-LC retention time of 833 s.

Compound `COc1ccc(-c2ccnc3nc(Cc4ccc(F)cc4)nn23)cc1OC` had an RP-LC retention time of 851 s. For `Cc1ccc(-c2cc(C(=O)NCC(C)C)n(C)c2)cc1`, the RP-LC retention time amounted to 1070 s. With `CCC(=O)N1CCc2cc(C(=O)NC(C)C)ccc21`, the RP-LC retention time came to 685 s.

In turn, `CCS(=O)(=O)N1CC(=O)N(c2ccc(F)cc2C)C(C)(C(=O)NC2CCCC2)C1` (stereo not given) returned an RP-LC retention time of 805 s. In the case of `Cc1ccc(-c2noc(Cc3nnc(-c4cccc(Br)c4)o3)n2)cc1C`, the RP-LC retention time was found to be 1230 s. As to `CCN(CC)CCNC(=O)c1ccc2c(c1)N(S(C)(=O)=O)CC2`, the RP-LC retention time came to 554 s.

Turning to `CCc1ccc(C2=C(C)C(N3CCC(NC(=O)NC(C)C)CC3)=NS2(=O)=O)cc1`, the RP-LC retention time amounted to 596 s.

Turning to `COCCCNC(=O)c1ccc2c(c1)N=C(C)c1cc(Cl)ccc1S2`, the RP-LC retention time was determined as 914 s. `CCCCN1C(=O)c2ccccc2C(C(=O)NCCC(=O)OC)C12CCCCC2` (stereo not given) showed an RP-LC retention time of 868 s. For `CCOC(=O)Nc1c2ccccc2nc2ccccc12`, the RP-LC retention time stood at 660 s. In turn, `Cc1cc(C)c(S(=O)(=O)N2CC(=O)N(CC3CC3)C3(CCOCC3)C2)c(C)c1` returned an RP-LC retention time of 944 s. `CN(C)S(=O)(=O)c1ccc2c(c1)N(CC(=O)NCc1cccc(Cl)c1)C(=O)C1CCCCN21` (stereo not given) came in with an RP-LC retention time of 957 s. As for `O=S(=O)(c1ccccc1)N1CCCC(c2nnnn2-c2ccccc2)C1` (stereo not given), the RP-LC retention time was 928 s.

As for `CCN1C(=O)c2cccnc2Sc2cc(NC(=O)C3(c4ccc(OC)cc4)CC3)ccc21`, the RP-LC retention time is 939 s. Consider `CN(C)c1ccc(CNC(=O)C2CCN(c3cnc4nccnc4c3)CC2)cc1`, for which the RP-LC retention time turned out to be 562 s. For `Cc1cccc(-c2nc3ccccn3c2NC(=O)Nc2ccccc2)c1`, the RP-LC retention time was determined as 665 s. The compound `Cc1nnc2ccc(N3CCC(C(=O)NCCCOC(C)C)CC3)nn12` registered an RP-LC retention time of 643 s. `CCCCN1CCc2nc(N3CCN(c4ccccc4F)CC3)ncc2C1` returned an RP-LC retention time of 715 s. `CCc1ccc(-c2cc3c(=O)n(Cc4noc(CN5CCC(C)CC5)n4)ccn3n2)cc1` yielded an RP-LC retention time of 757 s. `CCn1ncc(Cl)c1C(=O)N1CCCC1c1ccc(F)cc1` (stereo not given) showed an RP-LC retention time of 912 s. In the case of `COc1cc(Cl)c(C)cc1N1C=C(C#N)S(=O)(=O)c2ccc(F)cc21` it was 972 s; in that of `Cn1nc(CO)c2c1CCN(C(=O)c1cc(-c3cccs3)[nH]n1)C2`, 602 s. As for `CC(C)(C)c1ccc(-c2noc(Cn3c(=O)n(-c4cccc(F)c4)c(=O)c4sccc43)n2)cc1`, the RP-LC retention time was 1220 s. Take `O=C(Nc1ccccc1Cl)N(CCc1cccs1)C1CC1`: the RP-LC retention time is 1120 s. The compound `CCOCCCNC(=O)C(C)n1nc(C)c2c(C)n(-c3ccccc3)nc2c1=O` (stereo not given) showed an RP-LC retention time of 721 s. For `COc1ccc(NS(=O)(=O)c2cn(C(C)C)c3ncccc23)cc1Cl`, the RP-LC retention time worked out at 908 s.

Turning to `Cc1ccc(OCc2nc(-c3cccc(-c4ccn[nH]4)c3)no2)cc1`, the RP-LC retention time came out at 778 s.

Consider `COc1ccc(NS(=O)(=O)c2ccc3c(c2)-c2oncc2CO3)c(OC)c1`, for which the RP-LC retention time stood at 852 s. For `CS(=O)(=O)N1CCC(C(=O)Nc2cccc(F)c2)Oc2ccccc21` (stereo not given) the value was 894 s; for `Cc1ccc(-c2nc(-c3ccc4c(c3)nnn4CCN(C)C)no2)cc1F`, 708 s; for `O=C(Nc1ccc(C(F)(F)F)cc1)c1cnc(-c2ccccc2)nc1-c1ccncc1`, 1010 s. For `CN1CCN(CCNC(=O)c2ccc3c(c2)nnn3Cc2ccc(F)cc2)CC1`, the RP-LC retention time was 591 s. In the case of `COc1ccc(-c2cc3n(n2)CCCN(C(=O)c2cccn2C)C3)cc1` it was 807 s; in that of `Cc1nc(-c2ccc(F)cc2)sc1C(=O)NC(C)C`, 890 s.
